From patent publication US8604217B2, “Compound, a process for its preparation, a pharmaceutical composition, use of a compound, a method for modulating or regulating serine/threonine kinases and a serine/threonine kinases modulating agent” (Selvita S.A., priority 2009, dated 2013)

Columns and labels:
Test in all cases: KinaseProfiler kinase panel
Format in all cases: biochemical
HIPK3(h) = HIPK3(h) (Homo sapiens (Human), UniProt Q9H422)
Haspin(h) = Haspin(h) (Homo sapiens (Human), UniProt Q8TF76)
PIM-2(h) = PIM-2(h) (Homo sapiens (Human), UniProt Q9P1W9)
MSK2(h) = MSK2(h) (Homo sapiens (Human), UniProt O75676)
PKCθ(h) = PKCθ(h) (Homo sapiens (Human), UniProt Q04759)
PKCθ(h), sequence (Q04759 whole entry): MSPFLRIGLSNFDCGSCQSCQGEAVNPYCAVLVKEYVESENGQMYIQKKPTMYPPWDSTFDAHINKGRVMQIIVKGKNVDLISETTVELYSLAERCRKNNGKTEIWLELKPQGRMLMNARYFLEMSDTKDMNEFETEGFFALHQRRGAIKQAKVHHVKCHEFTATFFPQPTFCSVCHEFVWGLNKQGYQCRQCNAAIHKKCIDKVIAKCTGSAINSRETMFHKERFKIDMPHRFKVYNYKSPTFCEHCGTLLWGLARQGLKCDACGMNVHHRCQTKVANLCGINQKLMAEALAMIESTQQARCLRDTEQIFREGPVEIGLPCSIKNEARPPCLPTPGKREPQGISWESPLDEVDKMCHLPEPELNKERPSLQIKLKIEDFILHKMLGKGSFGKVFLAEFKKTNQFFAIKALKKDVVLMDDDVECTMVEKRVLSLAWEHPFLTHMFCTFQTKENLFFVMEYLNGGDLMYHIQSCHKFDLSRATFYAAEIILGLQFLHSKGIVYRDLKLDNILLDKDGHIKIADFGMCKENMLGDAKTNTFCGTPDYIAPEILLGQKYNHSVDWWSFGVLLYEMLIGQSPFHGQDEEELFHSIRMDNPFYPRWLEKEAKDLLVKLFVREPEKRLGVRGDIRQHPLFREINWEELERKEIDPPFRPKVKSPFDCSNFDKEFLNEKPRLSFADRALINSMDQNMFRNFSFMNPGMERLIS

Ret(h) = Ret(h) (Homo sapiens (Human), UniProt P07949)
Ret(h), sequence (P07949 29-1114): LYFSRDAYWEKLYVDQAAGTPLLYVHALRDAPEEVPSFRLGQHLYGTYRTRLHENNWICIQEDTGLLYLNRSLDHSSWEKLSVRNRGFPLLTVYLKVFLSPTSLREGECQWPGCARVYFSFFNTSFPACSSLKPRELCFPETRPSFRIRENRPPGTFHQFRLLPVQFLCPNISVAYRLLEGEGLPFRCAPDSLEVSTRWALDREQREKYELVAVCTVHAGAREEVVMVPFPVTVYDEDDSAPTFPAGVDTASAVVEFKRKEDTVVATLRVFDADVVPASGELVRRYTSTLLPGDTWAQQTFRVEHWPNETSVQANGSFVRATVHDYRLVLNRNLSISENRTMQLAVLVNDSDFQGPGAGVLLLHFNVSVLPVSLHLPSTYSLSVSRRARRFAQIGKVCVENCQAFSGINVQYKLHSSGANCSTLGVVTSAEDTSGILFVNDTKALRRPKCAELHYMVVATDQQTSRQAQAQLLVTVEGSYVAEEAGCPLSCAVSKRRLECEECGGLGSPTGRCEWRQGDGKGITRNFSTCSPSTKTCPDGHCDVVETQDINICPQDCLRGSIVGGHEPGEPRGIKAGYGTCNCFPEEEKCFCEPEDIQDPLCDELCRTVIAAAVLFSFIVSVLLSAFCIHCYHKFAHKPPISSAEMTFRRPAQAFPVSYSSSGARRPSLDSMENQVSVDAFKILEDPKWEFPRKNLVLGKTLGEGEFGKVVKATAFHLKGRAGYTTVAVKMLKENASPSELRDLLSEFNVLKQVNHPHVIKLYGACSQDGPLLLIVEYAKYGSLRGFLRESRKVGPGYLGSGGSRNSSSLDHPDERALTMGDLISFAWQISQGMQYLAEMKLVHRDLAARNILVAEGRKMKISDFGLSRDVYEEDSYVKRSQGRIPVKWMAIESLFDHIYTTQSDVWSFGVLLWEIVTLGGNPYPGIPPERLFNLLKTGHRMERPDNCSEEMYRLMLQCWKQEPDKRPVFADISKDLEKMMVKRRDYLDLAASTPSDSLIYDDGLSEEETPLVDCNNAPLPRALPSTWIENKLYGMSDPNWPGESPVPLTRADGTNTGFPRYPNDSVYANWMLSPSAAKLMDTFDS

IRAK1(h) = IRAK1(h) (Homo sapiens (Human), UniProt P51617)
CaMKIIγ(h) = CaMKIIγ(h) (Homo sapiens (Human), UniProt Q13555)
MKK6(h) = MKK6(h) (Homo sapiens (Human), UniProt P52564)
MKK6(h), sequence (P52564 whole entry): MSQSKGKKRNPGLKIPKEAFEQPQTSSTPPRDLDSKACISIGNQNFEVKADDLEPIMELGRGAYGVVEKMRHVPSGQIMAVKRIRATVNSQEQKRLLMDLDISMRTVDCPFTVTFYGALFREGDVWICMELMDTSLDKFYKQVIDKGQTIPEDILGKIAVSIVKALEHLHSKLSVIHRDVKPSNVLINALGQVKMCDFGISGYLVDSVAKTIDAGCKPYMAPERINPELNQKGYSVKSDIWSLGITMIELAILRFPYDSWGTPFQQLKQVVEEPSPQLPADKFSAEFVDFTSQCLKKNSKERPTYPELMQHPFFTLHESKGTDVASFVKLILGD

TAK1(h) = TAK1(h) (Homo sapiens (Human), UniProt O43318)
TAK1(h), sequence (O43318 1-303): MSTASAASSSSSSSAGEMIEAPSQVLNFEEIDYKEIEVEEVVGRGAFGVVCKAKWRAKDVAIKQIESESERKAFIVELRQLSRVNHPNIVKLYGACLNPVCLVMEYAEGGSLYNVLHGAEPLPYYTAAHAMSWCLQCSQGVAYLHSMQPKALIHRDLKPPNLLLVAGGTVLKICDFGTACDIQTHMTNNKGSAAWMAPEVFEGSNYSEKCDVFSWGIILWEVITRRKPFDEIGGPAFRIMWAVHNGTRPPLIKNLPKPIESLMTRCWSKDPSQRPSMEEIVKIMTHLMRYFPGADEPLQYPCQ

AMPKα2(h) = AMPKα2(h) (Homo sapiens (Human), UniProt P54646)
SAPK3(h) = SAPK3(h) (Homo sapiens (Human), UniProt P53778)
Fms(h) = Fms(h) (Homo sapiens (Human), UniProt P07333)
IGF-1R(h) = IGF-1R(h) (Homo sapiens (Human), UniProt P08069)
IKKβ(h) = IKKβ(h) (Homo sapiens (Human), UniProt O14920)
Hck(h) = Hck(h) (Homo sapiens (Human), UniProt P08631)
Rsk1(r) = Rsk1(r) (Rattus norvegicus (Rat), UniProt Q63531)
Aurora-B(h) = Aurora-B(h) (Homo sapiens (Human), UniProt Q96GD4)
Aurora-B(h), sequence (Q96GD4 whole entry): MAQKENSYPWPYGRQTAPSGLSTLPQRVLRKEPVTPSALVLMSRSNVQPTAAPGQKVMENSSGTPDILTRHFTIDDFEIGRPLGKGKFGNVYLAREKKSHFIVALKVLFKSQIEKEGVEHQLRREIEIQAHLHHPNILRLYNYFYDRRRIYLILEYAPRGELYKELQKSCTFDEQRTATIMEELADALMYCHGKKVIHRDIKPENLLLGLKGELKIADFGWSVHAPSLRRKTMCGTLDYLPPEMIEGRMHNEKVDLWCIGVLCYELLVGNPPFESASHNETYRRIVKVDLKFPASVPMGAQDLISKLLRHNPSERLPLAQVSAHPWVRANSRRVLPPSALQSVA

DRAK1(h) = DRAK1(h) (Homo sapiens (Human), UniProt Q9UEE5)
NEK3(h) = NEK3(h) (Homo sapiens (Human), UniProt P51956)
EphB1(h) = EphB1(h) (Homo sapiens (Human), UniProt P54762)
MINK(h) = MINK(h) (Homo sapiens (Human), UniProt Q8N4C8)
MINK(h), sequence (Q8N4C8 whole entry): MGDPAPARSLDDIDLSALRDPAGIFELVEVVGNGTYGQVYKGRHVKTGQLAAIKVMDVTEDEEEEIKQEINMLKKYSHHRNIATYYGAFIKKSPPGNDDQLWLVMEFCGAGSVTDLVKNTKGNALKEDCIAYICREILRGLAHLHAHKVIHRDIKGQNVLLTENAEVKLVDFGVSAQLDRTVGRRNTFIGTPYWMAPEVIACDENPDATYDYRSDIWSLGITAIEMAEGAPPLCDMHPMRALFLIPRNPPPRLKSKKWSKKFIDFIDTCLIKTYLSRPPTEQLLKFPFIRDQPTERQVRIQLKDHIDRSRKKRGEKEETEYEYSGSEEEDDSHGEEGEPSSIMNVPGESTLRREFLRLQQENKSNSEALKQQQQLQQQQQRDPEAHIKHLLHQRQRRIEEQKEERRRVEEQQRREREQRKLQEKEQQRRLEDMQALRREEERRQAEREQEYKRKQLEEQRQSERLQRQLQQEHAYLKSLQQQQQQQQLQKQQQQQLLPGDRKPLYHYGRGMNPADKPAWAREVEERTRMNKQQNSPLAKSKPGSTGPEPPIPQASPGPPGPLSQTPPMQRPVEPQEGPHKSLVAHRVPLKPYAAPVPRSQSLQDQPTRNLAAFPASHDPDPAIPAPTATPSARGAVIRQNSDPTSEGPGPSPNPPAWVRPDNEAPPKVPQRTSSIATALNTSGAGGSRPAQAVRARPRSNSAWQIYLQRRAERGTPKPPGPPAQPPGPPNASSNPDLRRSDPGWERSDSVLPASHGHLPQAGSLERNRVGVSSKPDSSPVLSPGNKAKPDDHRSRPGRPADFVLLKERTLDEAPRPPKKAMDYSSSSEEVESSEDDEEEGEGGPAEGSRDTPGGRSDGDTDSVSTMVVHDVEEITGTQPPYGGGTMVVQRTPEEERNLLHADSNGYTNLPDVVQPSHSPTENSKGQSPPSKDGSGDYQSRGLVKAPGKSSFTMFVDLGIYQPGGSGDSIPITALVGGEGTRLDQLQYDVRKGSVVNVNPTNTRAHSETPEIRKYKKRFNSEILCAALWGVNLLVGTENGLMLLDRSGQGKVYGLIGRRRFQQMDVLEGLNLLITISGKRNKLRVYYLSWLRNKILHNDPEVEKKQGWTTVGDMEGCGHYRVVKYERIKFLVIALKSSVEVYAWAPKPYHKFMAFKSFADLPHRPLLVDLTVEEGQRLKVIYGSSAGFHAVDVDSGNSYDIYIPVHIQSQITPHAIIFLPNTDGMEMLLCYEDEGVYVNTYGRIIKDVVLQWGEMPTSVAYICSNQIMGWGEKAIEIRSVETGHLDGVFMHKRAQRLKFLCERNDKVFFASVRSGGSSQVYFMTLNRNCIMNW

PRAK(h) = PRAK(h) (Homo sapiens (Human), UniProt Q8IW41)
PKCη(h) = PKCη(h) (Homo sapiens (Human), UniProt P24723)
Tie2 (h) = Tie2 (h) (Homo sapiens (Human), UniProt Q02763)
GRK5(h) = GRK5(h) (Homo sapiens (Human), UniProt P34947)
JNK1α1(h) = JNK1α1(h) (Homo sapiens (Human), UniProt P45983)
SAPK2a(h) = SAPK2a(h) (Homo sapiens (Human), UniProt Q16539)
DAPK1(h) = DAPK1(h) (Homo sapiens (Human), UniProt P53355)
PKCβI(h) = PKCβI(h) (Homo sapiens (Human), UniProt P05771)
PKCβI(h), sequence (P05771 whole entry): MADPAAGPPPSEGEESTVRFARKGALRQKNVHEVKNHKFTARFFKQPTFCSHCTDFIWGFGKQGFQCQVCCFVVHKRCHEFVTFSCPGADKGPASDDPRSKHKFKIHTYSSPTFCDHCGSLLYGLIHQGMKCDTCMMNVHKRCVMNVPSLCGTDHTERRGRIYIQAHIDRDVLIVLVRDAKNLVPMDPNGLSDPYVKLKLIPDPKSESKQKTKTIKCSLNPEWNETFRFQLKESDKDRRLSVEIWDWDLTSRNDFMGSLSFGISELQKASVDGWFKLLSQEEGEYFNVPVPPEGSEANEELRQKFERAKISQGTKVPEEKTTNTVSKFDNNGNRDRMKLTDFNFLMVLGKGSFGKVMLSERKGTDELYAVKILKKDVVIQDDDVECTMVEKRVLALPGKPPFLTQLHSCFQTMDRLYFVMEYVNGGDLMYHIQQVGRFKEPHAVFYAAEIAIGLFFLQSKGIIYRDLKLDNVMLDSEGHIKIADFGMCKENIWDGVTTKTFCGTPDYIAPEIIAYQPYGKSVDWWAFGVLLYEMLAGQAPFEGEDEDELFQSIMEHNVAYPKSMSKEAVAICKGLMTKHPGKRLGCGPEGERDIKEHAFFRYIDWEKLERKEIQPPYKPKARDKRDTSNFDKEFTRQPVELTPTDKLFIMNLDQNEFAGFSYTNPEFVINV

WNK2(h) = WNK2(h) (Homo sapiens (Human), UniProt Q9Y3S1)
DDR2(h) = DDR2(h) (Homo sapiens (Human), UniProt Q16832)
Rse(h) = Rse(h) (Homo sapiens (Human), UniProt Q06418)
EphB2(h) = EphB2(h) (Homo sapiens (Human), UniProt P29323)
MAPKAP-K3(h) = MAPKAP-K3(h) (Homo sapiens (Human), UniProt Q16644)
Ron(h) = Ron(h) (Homo sapiens (Human), UniProt Q04912)
ZAP-70(h) = ZAP-70(h) (Homo sapiens (Human), UniProt P43403)
ALK4(h) = ALK4(h) (Homo sapiens (Human), UniProt P36896)
MRCKβ(h) = MRCKβ(h) (Homo sapiens (Human), UniProt Q9Y5S2)
JAK2(h) = JAK2(h) (Homo sapiens (Human), UniProt O60674)

`CCn1c(N2CCNCC2)nc2c(Br)c(Br)c(Br)c(Br)c21` [Compound 416, 4,5,6,7-tetrabromo-1-ethyl-2-(piperazin-1-yl)-1H-benzo[d]imidazole] showed a remaining activity at 1 µM (HIPK3(h)) of -1%, a remaining activity at 1 µM (Haspin(h)) of 2% and a remaining activity at 1 µM (PIM-2(h)) of 10%. The remaining activity at 1 µM (MSK2(h)) was 16%, the remaining activity at 1 µM (PKCθ(h)) was 26% and the remaining activity at 1 µM (Ret(h)) was 27%. For the same compound, the remaining activity at 1 µM (IRAK1(h)) was 33%, the remaining activity at 1 µM (CaMKIIγ(h)) was 41% and the remaining activity at 1 µM (MKK6(h)) was 43%. It also gave a remaining activity at 1 µM (TAK1(h)) of 52%, a remaining activity at 1 µM (AMPKα2(h)) of 67% and a remaining activity at 1 µM (SAPK3(h)) of 68%. The remaining activity at 1 µM (Fms(h)) was 72%, the remaining activity at 1 µM (IGF-1R(h)) was 75% and the remaining activity at 1 µM (IKKβ(h)) was 78%. It also gave a remaining activity at 1 µM (Hck(h)) of 79%, a remaining activity at 1 µM (Rsk1(r)) of 79% and a remaining activity at 1 µM (Aurora-B(h)) of 80%. It also gave a remaining activity at 1 µM (DRAK1(h)) of 82%, a remaining activity at 1 µM (NEK3(h)) of 85% and a remaining activity at 1 µM (EphB1(h)) of 87%. It also gave a remaining activity at 1 µM (MINK(h)) of 87%, a remaining activity at 1 µM (PRAK(h)) of 91% and a remaining activity at 1 µM (PKCη(h)) of 92%. It also gave a remaining activity at 1 µM (Tie2 (h)) of 92%, a remaining activity at 1 µM (GRK5(h)) of 96% and a remaining activity at 1 µM (JNK1α1(h)) of 97%. The remaining activity at 1 µM (SAPK2a(h)) was 99%, the remaining activity at 1 µM (DAPK1(h)) was 100% and the remaining activity at 1 µM (PKCβI(h)) was 102%. The remaining activity at 1 µM (WNK2(h)) was 102%, the remaining activity at 1 µM (DDR2(h)) was 105% and the remaining activity at 1 µM (Rse(h)) was 105%. The remaining activity at 1 µM (EphB2(h)) was 106%, the remaining activity at 1 µM (MAPKAP-K3(h)) was 106% and the remaining activity at 1 µM (Ron(h)) was 108%. It also gave a remaining activity at 1 µM (ZAP-70(h)) of 108%, a remaining activity at 1 µM (ALK4(h)) of 112% and a remaining activity at 1 µM (MRCKβ(h)) of 113%. For the same compound, the remaining activity at 1 µM (JAK2(h)) was 121%.
